Columns and labels:
succinate dehydrogenase = molecular target: T1, succinate dehydrogenase (Botrytis cinerea, UniProt A0A384J5E4+A0A384J8V8+A0A384JHJ5); assay: Enzyme inhibition: succinate dehydrogenase activity in Botrytis cinerea mitochondria (DCPIP reduction); assay type: biochemical; conditions: concentration required to inhibit the rate of DCPIP reduction by 50%; Botrytis cinerea isolate Nick mitochondria; read-out: I50 (μM conc.)
T1 construct: succinate-DCPIP reductase assay with KCN
Outline: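 Crude mitochondria from Botrytis cinerea isolate Nick mycelia, prepared by bead-beating and differential centrifugation, started reactions. SDH activity followed as DCPIP reduction at 600 nm in 50 mM K-phosphate pH 7.2 with 1 mM KCN, 45 μM DCPIP, 17 mM succinate, 1% acetone. I50 from semilog inhibition plots, corrected for succinate-free rates.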

Botrytis cinerea [1] = assay: Eggplant grey mold; assay type: in vivo; conditions: eggplant sprayed with 500 ppm, inoculated 24 h later, rated after 3-4 days; further: key: 0: No disease control; 1: Low level of control; 2: Moderate control; 3: High level of control
Outline: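 Protective test: compound formulations (2:3 acetone:water, 0.5% Tween 20; 500, 100 or 20 ppm) sprayed on 14-18-day-old plants, with spore inoculum (4×10^6 spore/mL) applied a day later. Disease control rated on Botrytis lesions after 3-4 days at 23 °C and 100% humidity.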

Botrytis cinerea [2] = assay: Vine grey mold (grape berries); assay type: in vivo
Outline: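 Preventive berry test: compound at 50 or 200 ppm (acetone/water, 0.05% Tween 20) applied one day before inoculation with 10^6 spores/mL Botrytis conidia. After 7-10 days at 20 °C under 12 h light, infected surface area rated; disease control expressed as percent reduction from control mean; repeated-test values averaged.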

Rhizoctonia solani = assay: Rice sheath blight; assay type: in vivo; conditions: inoculated two days later, rated after 7 days, average of five plants
Outline: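 Rice plants 11–15 days old had foliage and soil sprayed with 0.5, 0.1 or 0.02 mg/mL Compound A in water/acetone/Tween 20, then kept in flooded trays. Two days later, rice-grain Rhizoctonia solani inoculum went to plant bases; disease control scored versus untreated after 7 days at 25 °C, high humidity, averaging five plants.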

[3] = tested on: Botrytis cinerea Mitochondria; conditions: 1 μM concentration; cited from earlier work

T1 sequence (A0A384J5E4 1-300): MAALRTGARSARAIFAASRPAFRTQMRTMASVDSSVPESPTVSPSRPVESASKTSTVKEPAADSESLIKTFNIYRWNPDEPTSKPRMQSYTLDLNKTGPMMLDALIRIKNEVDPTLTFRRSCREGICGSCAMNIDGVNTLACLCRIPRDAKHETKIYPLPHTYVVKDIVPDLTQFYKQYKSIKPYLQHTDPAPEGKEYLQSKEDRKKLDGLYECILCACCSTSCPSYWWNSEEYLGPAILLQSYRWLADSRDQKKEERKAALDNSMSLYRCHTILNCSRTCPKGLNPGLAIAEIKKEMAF
T1 sequence (A0A384J8V8 1-189): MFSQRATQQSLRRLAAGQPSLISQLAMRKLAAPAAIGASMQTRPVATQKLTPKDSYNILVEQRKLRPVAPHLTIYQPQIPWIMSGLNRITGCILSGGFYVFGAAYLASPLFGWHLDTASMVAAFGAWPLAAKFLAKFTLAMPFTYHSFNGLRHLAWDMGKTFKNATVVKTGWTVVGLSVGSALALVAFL
T1 sequence (A0A384JHJ5 1-192): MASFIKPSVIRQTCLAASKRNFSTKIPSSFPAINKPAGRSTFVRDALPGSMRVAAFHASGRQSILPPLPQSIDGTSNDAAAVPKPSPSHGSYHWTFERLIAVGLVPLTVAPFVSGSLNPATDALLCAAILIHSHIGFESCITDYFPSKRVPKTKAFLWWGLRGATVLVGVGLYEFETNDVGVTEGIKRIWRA
T1 sequence (A0A384K456 1-647 partner): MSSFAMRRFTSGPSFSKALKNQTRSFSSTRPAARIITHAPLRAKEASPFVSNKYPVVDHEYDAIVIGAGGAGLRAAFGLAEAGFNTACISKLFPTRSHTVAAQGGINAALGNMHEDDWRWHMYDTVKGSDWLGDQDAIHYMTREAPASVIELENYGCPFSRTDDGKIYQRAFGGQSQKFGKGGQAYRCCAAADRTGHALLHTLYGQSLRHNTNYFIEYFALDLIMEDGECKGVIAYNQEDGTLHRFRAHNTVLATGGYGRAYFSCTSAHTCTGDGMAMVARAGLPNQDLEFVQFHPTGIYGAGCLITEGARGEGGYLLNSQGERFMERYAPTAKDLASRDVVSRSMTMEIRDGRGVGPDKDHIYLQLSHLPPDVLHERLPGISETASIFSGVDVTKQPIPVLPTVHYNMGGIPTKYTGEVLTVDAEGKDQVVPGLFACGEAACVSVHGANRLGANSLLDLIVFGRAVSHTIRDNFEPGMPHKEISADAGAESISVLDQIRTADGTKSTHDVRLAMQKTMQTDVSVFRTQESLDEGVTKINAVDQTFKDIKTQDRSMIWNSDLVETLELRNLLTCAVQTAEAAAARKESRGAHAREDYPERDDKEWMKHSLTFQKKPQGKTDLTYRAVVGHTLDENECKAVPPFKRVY

SMILES: CC1=C(C(=O)Nc2ccccc2)SCCO1 [Carboxin, carboxin, reference compound]
- IC50 (succinate dehydrogenase): 0.72 ± 0.3 µM
- Disease Control Rating at 500 ppm (Botrytis cinerea [1]): 0
- pest or weed control at 50 ppm (Botrytis cinerea [2]; read-out: % DISEASE CONTROL 50 ppm): 0%
- pest or weed control at 200 ppm (Botrytis cinerea [2]; read-out: % DISEASE CONTROL 200 ppm): 0%
- Disease Control Rating at 0.02 mg/mL (Rhizoctonia solani; foliage and soil sprayed with 0.02 mg/mL): 0
- Disease Control Rating at 0.1 mg/mL (Rhizoctonia solani; foliage and soil sprayed with 0.1 mg/mL): 1
- Disease Control Rating at 0.5 mg/mL (Rhizoctonia solani; foliage and soil sprayed with 0.5 mg/mL): 3
- inhibition (respiratory inhibition) [3]: 68%
